Test results reported in PMC5904360, “Soluble N-Ethylmaleimide-Sensitive Factor Attachment Protein Receptor-Derived Peptides for Regulation of Mast Cell Degranulation” (Frontiers in Immunology, 2018).

Columns and labels:
NC/Nga mice = experiment: DNCB-induced atopic dermatitis-like skin lesions; format: in vivo, mouse; conditions: 0.3 and 3% peptide/day or 0.1% dexamethasone/day for 4 weeks, n = 10 per group (Figure 5D)
From the text: Seven-week-old NC/Nga mice were purchased from the Shizuoka Laboratory Animal Center (Shizuoka, Japan) and allowed to adapt to the environment for a week prior to use. The procedures for the induction of atopic dermatitis-like symptoms in mice using 1-chloro-2,4-dinitro-benzene (DNCB) have been well described previously ([27]). Briefly, the dorsal hair of the mice was shaved 2 days before DNCB administration. For the induction of atopic dermatitis, 1% DNCB was applied to the dorsal skin of the mice twice weekly for 7 days and then 0.2% DNCB was applied thrice weekly for 21 days. The mice were divided into the following […] treatment groups (n = 10 per group): 0.3 and 3% Vp2N/day, 0.3 and 3% Vp8N/day, 0.1% dexamethasone/day, and vehicle only, dorsally administered from 9 to 13 weeks of age. As a negative control for atopic dermatitis, NC/Nga mice that were not treated with DNCB were maintained under pathogen-free conditions. Laboratory animal breeding management was based on the “Guide for the Care and Use of Laboratory Animals,” and all experiments were approved by the Institutional Animal Care and Use Committees of Gyeonggi Institute of Science & Technology.

[1] = topical glucocorticosteroid; cited from earlier work
RBL-2H3 mast cells [2] = experiment: Degranulation assay, β-hexosaminidase release; format: cell-based, rat
RBL-2H3 mast cells [3] = experiment: Degranulation assay, histamine release (enzyme immunoassay); format: cell-based, rat
SN23-Syn4-Vp2 complex = biological target: T1, SN23-Syn4-Vp2 complex (Rattus norvegicus, UniProt O70377+P63045+Q08850); experiment: Co-immunoprecipitation of SNARE complexes in activated RBL-2H3 cells, anti-SNAP-23 blot; format: cell-based; conditions: peptides added to the medium after A23187 pretreatment; IP of Vp2, blot anti-SNAP-23 (Figure 4C)
T1 construct: Lysates of RBL-2H3 cells; endogenous in cells; host or cells: RBL-2H3 (ATCC CRL-2256)
T1 sequence (P63045 whole entry, one chain of several): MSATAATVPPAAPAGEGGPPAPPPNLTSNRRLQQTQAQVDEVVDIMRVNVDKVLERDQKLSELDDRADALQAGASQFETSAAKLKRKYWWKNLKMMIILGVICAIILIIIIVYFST
Experimental: (§1) Lysates of RBL-2H3 cells (0.5–1 × 10^6 cells), which were obtained by the addition of 1 mL lysis buffer (50 mM Tris–HCl, 150 mM NaCl, 1% Triton X-100™, 1 mM EDTA, pH 7.5) supplemented with a protease inhibitor cocktail (Calbiochem®, Merck Millipore, Billerica, MA, USA), were centrifuged at 13,000 g at 4°C to remove cell debris and precleared with 100 µL protein G Sepharose® (GE Healthcare) for 2 h at 4°C. The precleared lysates were incubated with antibodies against SNARE proteins (Syn4, SNAP-23, VAMP2, and VAMP8) for 2 h at 4°C for binding, and then the antibody–antigen complexes were precipitated by incubation with a protein G slurry overnight with constant shaking. After an extensive washing step with lysis buffer, an immunoblotting analysis was performed for the precipitates. The immunoprecipitated proteins and cell lysates were electrophoresed on 12% sodium dodecyl sulfate-polyacrylamide gel electrophoresis gels and then transferred to nitrocellulose blotting membranes (GE Healthcare). After blocking the membranes in TBST (10 mM Tris–HCl, 150 mM NaCl, and 0.05% Tween® 20, pH 8) containing 0.5% BSA and 5% skim milk for 1 h at room temperature, primary anti-SNAP-23 antibody (1:1,000 dilution) in TBST supplemented with 1% BSA and 0.01% sodium azide was added and incubated at 4°C overnight. The membranes were washed with TBST, treated with a horseradish peroxidase-conjugated secondary anti-mouse IgG antibody (A4416, Sigma-Aldrich), and visualized using enhanced chemiluminescence solution for the development of a luminescent signal.

SN23-Syn4-Vp8 complex = biological target: T2, SN23-Syn4-Vp8 complex (Rattus norvegicus, UniProt O70377+Q08850+Q9WUF4); experiment: as above; format: cell-based; conditions: peptides added to the medium after A23187 pretreatment; IP of Vp8, blot anti-SNAP-23 (Figure 4C)
T2 construct: Lysates of RBL-2H3 cells; endogenous in cells; host or cells: RBL-2H3 (ATCC CRL-2256)
T2 sequence (Q08850 1-298): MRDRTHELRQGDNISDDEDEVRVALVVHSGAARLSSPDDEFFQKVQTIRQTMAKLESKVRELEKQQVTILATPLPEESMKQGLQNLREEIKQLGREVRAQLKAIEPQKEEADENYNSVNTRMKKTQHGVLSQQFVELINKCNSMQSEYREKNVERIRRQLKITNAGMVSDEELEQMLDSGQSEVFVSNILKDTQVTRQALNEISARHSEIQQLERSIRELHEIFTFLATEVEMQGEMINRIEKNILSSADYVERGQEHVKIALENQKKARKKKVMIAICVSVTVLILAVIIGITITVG
T2 sequence (O70377 1-210): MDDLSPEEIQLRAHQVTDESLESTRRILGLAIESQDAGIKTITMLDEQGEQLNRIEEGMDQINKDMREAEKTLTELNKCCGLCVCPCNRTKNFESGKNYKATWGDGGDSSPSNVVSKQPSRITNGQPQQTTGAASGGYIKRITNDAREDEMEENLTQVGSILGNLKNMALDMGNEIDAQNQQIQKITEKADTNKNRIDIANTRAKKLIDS
T2 sequence (Q9WUF4 1-100): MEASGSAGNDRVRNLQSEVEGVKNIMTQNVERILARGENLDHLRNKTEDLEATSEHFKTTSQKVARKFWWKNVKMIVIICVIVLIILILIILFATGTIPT
Experimental: as §1

[4] = cells pretreated with A23187, sensitized with DNP-IgE, then PTD-conjugated peptide (Figure 4B)

SMILES | ear thickness (NC/Nga mice) | side effect [1] | reduction of β-hexosaminidase release (RBL-2H3 mast cells [2]; 10 µM PTD-fused peptide without SLO (LY294002 as positive control), DNP-BSA stimulation, no A23187 pretreatment, three independent experiments (Figure 2A gray bars, 2C)) | inhibition of β-hexosaminidase release after A23187 pretreatment (RBL-2H3 mast cells [2]; [4]) | inhibition of histamine release (RBL-2H3 mast cells [3]; PTD-conjugated peptide without SLO (LY294002 as positive control), DNP-IgE sensitized, DNP-BSA stimulation, no A23187 pretreatment, three independent experiments (Figure 2C)) | inhibition of histamine release after A23187 pretreatment (RBL-2H3 mast cells [3]; [4]) | SNARE complex formation in cells (amount of SN23-Syn4-Vp2 complex) (SN23-Syn4-Vp2 complex) | SNARE complex formation in cells (amount of SN23-Syn4-Vp8 complex) (SN23-Syn4-Vp8 complex)
C[C@@H]1C[C@H]2[C@@H]3CCC4=CC(=O)C=C[C@]4(C)[C@@]3(F)[C@@H](O)C[C@]2(C)[C@@]1(O)C(=O)CO [Dexamethasone, dexamethasone, reference compound] | recovered the ear thickness to the normal range | skin thinning | – | – | – | – | – | –
O=c1cc(N2CCOCC2)oc2c(-c3ccccc3)cccc12 [LY294002, reference compound] | – | – | efficiently inhibited | efficiently inhibited | efficiently inhibited | efficiently inhibited | did not inhibit | did not inhibit
